The values below come from patent US20080220497A1, “Modulation of protein functionalities” (priority 2003, published 2008).

One assay has as its target p38-alpha kinase (Homo sapiens, UniProt Q16539). Particulars: time-dependent if IC50 values decrease with reaction time (more than two-fold in four hours).
The target in assay [1] is T1, c-Abl kinase (Homo sapiens, UniProt P00519).
T1 construct: other: c-Abl kinase
The experiment in a line: Fluorescence affinity assay for Abl kinase (PD 166326 fluoroprobe). It is filed as binding. The settings on record: read-out: EC50 for accelerating the binding of fluoroprobe PD 166326; c-Abl kinase; early time-point binding. The protocol:
(§1) Tris buffer: 90 mM Tris-HCl buffer, pH 7.5, containing 0.2% octyl-glucoside • 4. […] Polarstar Optima plate reader (BMG) or equivalent
(§2) B. Procedure: • 1. Make Solution A containing 80 nM Abl in the Tris buffer • 2. Serially dilute test compounds in Solution A (50 uL per well) • 3. Incubate the plate at room temp for 0.5 h • 4.
(§3) Abl kinase was preincubated with test compounds for […] in the absence of fluoroprobe. […] By comparison of RFU (relative fluorescence units) values with that of a control (in the absence of small molecule modulators), the percentage of modulation at each concentration of the small molecules was calculated.

The next assay has as its system Abl kinase. In words: Thermal denaturation of Abl kinase. It is filed as binding, human. Particulars: 1 μM Abl kinase, 20 μM small molecule. The protocol: (§4) Denaturation was monitored by measuring the absolute absorbance of the solutions at an appropriate wavelength (typically 230 nm and 240 nm) as a function of temperature. As the protein became denatured, additional UV absorbing functional groups became exposed causing an increase in absorbance at the melting temperature. […] The thermal data were collected using Agilent spectrophotometers and ChemStation UV/Vis Thermal Denaturation software.
5 μL of 40 μM Abl kinase was mixed with 195 μL of the small molecule/buffer solution. The final concentration was 1 μM Abl kinase and 20 μM small molecule. The final protein and buffer solution was mixed gently using a pipetter to minimize denaturing due to over aggressive mixing. The final solution was transferred to a 50 μL cuvette for analysis.
Test solutions containing only the Abl kinase were prepared as follows: 5 μL of 40 μM Abl kinase was mixed with 195 μL Buffer to give a concentration of 1 μM Abl kinase in Buffer. The protein and buffer solution was mixed gently using a pipetter to minimize denaturing due to over aggressive mixing. The final solution was transferred to a 50 μL cuvette for analysis.
(§5) A first derivative calculation with data smoothing was applied to the resulting data to report the point of inflection as the melting temperature.

The subject of assay [2] is c-Abl kinase. The experiment in a line: Fluorescence affinity assay for Abl kinase (PD 166326 fluoroprobe). In kind it is binding, human. The settings on record: 100 nM PD 166326, 40 nM Abl kinase. The protocol:
as §1, §2, §3

For the next assay, the target named is T2, V599E Braf kinase (Homo sapiens, UniProt P15056, V600E).
T2 construct: 6×His-tag (N); made in house; host or cells: Sf9 insect cells (baculovirus)
In words: Thermal denaturation of oncogenic V599E Braf kinase. It is filed as binding. The settings on record: 1.4 μM V599E Braf kinase, 20 μM small molecule; read-out: ΔTm (° C.) relative to unphosphorylated B-Raf(V599E). The protocol:
as §4
(§6) The final solution was transferred to a 50 μL cuvette for analysis.
as §6, §5

Assay [3] deals with T3, unphosphorylated p38-alpha kinase (Homo sapiens, UniProt Q16539, DEL261-261).
T3 construct: 48 (6×His-TEV tag, full length); 6×His-TEV tag (N); purchased Decode Genetics, Inc; host or cells: E. coli
In words: Fluorescence affinity assay, unphosphorylated p38-alpha kinase. In kind it is binding. An excerpt:
(§7) This fluorescence affinity assay is utilized in an affinity-based screen to identify small molecules which bind into switch control pockets of protein kinases. Binding of small molecule switch inhibitors displaces the switch control ligand phenylalanine of the DFG motif into an orientation which sterically blocks the ATP pocket. Such inhibitor-induced blockade of the ATP pocket is registered as an inhibition of binding of the fluoroprobe into the ATP pocket.
(§8) • 1. p38-alpha kinase • a. […] Polarstar Optima plate reader (BMG)
• 1. […] This dilution can be done automatically on a Tecan (or similar) robotic workstation or performed manually. • 3. Mix Solution A with the diluted compound solutions following Step 3 of Table 22. This step can be performed automatically on a Tecan (or similar) robotic workstation or performed manually. • 4. Incubate at 30° C. or room temp for 2 h, depending on protein stability. • 5. Read at emission wavelength 420 nm upon excitation at 340 nm.
The reaction was initiated by addition of the enzyme. […] By comparison of RFU (relative fluorescence units) values with that of a control (in the absence of small molecule modulators), the percentage of inhibition at each concentration of the small molecules was calculated. IC50 values for the small molecule modulators were calculated from the % inhibition values obtained at a range of concentrations of the small molecule modulators using Prism (available from GraphPad, Inc.). When time-dependent inhibition was assessed, the plate was read at multiple reaction times such as 0.5, 1, 2, 3, 4 and 6 hours. The IC50 values were calculated at each time point. An inhibition was assigned as time-dependent if the IC50 values decrease with the reaction time (more than two-fold in four hours).
(§9) A ratio greater than 1.0 indicates a preference for inhibiting the unphosphorylated form of p38-alpha kinase relative to the doubly phosphorylated form. A ratio less than 1.0 indicates a preference for inhibiting the doubly phosphorylated form of p38-alpha kinase relative to the unphosphorylated form.

Assay [4] concerns the target T4, doubly phosphorylated p38-alpha kinase (Homo sapiens, UniProt Q16539).
T4 construct: 6xHis ([…], seen only in the listing) (C); purchased Roche Applied Diagnostics
The experiment in a line: Fluorescence affinity assay, doubly phosphorylated p38-alpha kinase. In kind it is binding. The settings on record: ~24 nM enzyme; 1.0 uM SKF-86002; read-out: FP IC50 P-p38-alpha.
Excerpt: as §7, §8
• 1. […] This dilution can be done automatically on a Tecan (or similar) robotic workstation or performed manually. • 3. Mix Solution A with the diluted compound solutions following Step 3 of Table 22. This step can be performed automatically on a Tecan (or similar) robotic workstation or performed manually. • 4. Incubate at 30° C. or room temp for 2 h, depending on protein stability. • 5. Read at emission wavelength 420 nm upon excitation at 340 nm. […]
as §9

Assay [5] deals with T3, unphosphorylated p38-alpha kinase. In words: Thermal denaturation of unphosphorylated p38-alpha kinase. It is filed as binding. Particulars: […] p38-alpha kinase, 15 μM small molecule.
Excerpt: as §4
The final protein and buffer solution was mixed gently using a pipetter to minimize denaturing due to over aggressive mixing. The final solution was transferred to a 50 μL cuvette for analysis.
as §6, §5

Assay [6] deals with T4, doubly phosphorylated p38-alpha kinase. The experiment in a line: Thermal denaturation of doubly phosphorylated p38-alpha kinase. It is filed as binding. The settings on record: 0.5 μM p38-alpha kinase, 20 μM small molecule. The protocol: as §4
The final concentration was 0.5 μM p38-alpha kinase and 20 μM small molecule. The final protein and buffer solution was mixed gently using a pipetter to minimize denaturing due to over aggressive mixing. The final solution was transferred to a 50 μL cuvette for analysis.
The protein and buffer solution was mixed gently using a pipetter to minimize denaturing due to over aggressive mixing. The final solution was transferred to a 50 μL cuvette for analysis.
as §5

The target in the next assay is T5, Phospho-p38-alpha kinase (Homo sapiens, UniProt Q16539).
T5 construct: 6xHis ([…], seen only in the listing) (C); purchased Roche Applied Diagnostics
The experiment in a line: Spectrophotometric assay for phospho-p38-alpha kinase. Particulars: p38-alpha kinase biochemical assay.

p38-alpha kinase, sequence (Q16539 whole entry): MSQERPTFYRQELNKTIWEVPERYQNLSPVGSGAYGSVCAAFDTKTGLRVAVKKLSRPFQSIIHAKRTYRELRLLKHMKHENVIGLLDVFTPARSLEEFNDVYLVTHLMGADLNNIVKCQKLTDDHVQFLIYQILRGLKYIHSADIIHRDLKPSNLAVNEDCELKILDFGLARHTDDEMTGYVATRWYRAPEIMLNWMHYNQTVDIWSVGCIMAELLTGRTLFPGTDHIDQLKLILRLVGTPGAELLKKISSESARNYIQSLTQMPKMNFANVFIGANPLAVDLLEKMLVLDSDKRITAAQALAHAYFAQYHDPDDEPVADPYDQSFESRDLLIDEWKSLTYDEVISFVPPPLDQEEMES
T1 sequence (P00519 1-1149 isoform P00519-2): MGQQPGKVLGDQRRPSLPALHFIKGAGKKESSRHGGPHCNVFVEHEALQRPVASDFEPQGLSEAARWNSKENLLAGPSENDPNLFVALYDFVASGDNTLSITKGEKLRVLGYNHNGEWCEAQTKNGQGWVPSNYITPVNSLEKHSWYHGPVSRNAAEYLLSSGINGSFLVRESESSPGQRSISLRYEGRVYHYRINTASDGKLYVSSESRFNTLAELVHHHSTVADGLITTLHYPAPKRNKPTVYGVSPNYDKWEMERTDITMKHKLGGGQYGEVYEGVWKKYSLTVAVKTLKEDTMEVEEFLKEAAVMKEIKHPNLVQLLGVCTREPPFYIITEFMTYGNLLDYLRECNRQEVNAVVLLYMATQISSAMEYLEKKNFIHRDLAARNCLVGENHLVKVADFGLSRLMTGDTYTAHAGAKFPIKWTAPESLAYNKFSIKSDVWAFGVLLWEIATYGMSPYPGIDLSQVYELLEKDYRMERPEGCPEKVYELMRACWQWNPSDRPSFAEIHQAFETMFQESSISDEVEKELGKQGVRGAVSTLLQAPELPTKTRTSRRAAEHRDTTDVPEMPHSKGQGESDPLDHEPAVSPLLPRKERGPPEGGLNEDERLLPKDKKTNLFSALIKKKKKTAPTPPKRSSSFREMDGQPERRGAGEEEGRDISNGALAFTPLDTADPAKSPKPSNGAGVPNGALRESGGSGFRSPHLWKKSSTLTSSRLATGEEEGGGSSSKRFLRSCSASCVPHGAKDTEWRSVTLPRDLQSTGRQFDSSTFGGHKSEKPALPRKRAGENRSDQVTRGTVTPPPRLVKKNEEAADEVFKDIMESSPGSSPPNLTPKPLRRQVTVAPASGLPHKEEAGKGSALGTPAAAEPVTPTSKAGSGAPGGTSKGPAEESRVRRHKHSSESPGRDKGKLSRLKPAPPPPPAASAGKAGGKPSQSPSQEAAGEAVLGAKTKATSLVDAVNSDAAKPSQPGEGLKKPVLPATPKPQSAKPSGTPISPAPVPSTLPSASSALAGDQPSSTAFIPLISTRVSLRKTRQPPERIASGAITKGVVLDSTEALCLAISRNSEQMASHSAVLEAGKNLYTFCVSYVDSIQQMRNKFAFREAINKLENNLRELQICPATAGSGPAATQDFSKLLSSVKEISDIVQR
T3 sequence (Q16539 with tags, fused parts or gaps DEL261-261): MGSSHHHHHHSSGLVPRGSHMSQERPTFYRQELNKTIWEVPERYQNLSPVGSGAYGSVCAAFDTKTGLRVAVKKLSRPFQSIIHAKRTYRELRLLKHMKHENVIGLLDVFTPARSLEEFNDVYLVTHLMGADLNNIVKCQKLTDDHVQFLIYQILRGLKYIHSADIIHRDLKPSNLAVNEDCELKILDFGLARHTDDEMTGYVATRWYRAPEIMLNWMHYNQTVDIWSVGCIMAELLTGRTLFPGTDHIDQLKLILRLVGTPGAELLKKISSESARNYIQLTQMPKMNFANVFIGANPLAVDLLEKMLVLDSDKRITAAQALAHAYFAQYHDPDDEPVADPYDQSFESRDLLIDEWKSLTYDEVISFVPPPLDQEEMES
T4 sequence (Q16539 with tags, fused parts or gaps): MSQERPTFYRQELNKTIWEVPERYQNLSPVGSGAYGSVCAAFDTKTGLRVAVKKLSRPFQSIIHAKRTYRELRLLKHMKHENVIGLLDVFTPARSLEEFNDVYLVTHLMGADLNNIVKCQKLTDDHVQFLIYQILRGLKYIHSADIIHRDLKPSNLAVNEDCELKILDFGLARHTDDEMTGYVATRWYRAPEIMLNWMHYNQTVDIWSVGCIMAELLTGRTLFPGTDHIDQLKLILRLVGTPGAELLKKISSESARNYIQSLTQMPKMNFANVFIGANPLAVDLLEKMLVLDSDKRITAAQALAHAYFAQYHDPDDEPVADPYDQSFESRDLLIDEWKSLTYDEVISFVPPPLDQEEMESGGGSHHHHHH
T2 sequence (P15056 with tags, fused parts or gaps V600E): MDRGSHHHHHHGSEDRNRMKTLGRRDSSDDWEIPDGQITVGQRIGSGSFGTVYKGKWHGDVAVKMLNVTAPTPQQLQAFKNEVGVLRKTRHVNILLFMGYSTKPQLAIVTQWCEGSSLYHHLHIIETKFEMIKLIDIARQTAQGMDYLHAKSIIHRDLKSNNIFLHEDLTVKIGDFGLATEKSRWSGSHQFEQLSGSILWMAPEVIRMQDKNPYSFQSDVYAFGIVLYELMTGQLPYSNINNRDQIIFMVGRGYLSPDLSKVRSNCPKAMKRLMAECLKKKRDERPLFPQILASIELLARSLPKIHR
T5 sequence (Q16539 with tags, fused parts or gaps): as the sequence (Q16539 with tags, fused parts or gaps) above
Method for Phospho-p38-alpha kinase: Spectrophotometric Assay for Phospho-p38-alpha Kinase
NADH (Sigma): 5.6 mM • 5. Phosphoenol pyruvate (Sigma): 20 mM • 6. […] ATP (20 mM) • 8. […] Polarstar Optima plate reader (BMG)
IC50 determinations were performed using a serial dilution scheme to dilute inhibitor in DMSO, followed by further dilution in reaction buffer, and finally mixing with Mixture 1 (Table 29) which contains all the enzymes. The dilution procedure ensured that the test compound at various concentrations was properly dissolved into the buffer and enzyme reaction mixture.
Prepare Mixture 1 as described in Table 29 (use within 30 min) • 3. Mix the diluted compound with Mixture 1 following Step 3 of Table 28 • 4. Incubate the 384-well plate at 30° C. for 2 hours • 5. Add 1 μL of 30 mM ATP into each well and mix well • 6. Read on the microplate reader with one point every min for at least 2.5 hours at 30° C.
A linear regression was applied to data collected from t=1.5 hr to 2.5 hr to obtain the reaction rate for each data set. The data were approximately linear within this time frame. Percentage of inhibition was calculated by comparison of the rate in the presence of a compound with that of the control. IC50 values were calculated from a series of % inhibition values determined at a range of inhibitor concentrations using GraphPad Prism (version 4).

As to `CC1(C(=O)O)CC2(C)CC(C)(C1)C(=O)N(Cc1cccc(-n3nc(C(C)(C)C)cc3NC(=O)Nc3cccc4ccccc34)c1)C2=O` (stereo not shown) [Example 11], the Time-dependent entry at p38-alpha kinase is reported as “No”.

For the compound `CC1(C(=O)O)CC2(C)CC(C)(C1)C(=O)N(Cc1cccc(-n3nc(C(C)(C)C)cc3NC(=O)Nc3ccc(Cl)cc3)c1)C2=O` (stereo not shown) [Example 12], the Time-dependent result at p38-alpha kinase is given as “No”.

For the compound `CC(C)(C)c1cc(NC(=O)Nc2cccc3ccccc23)n(-c2cccc(CC(=O)N3CCOCC3)c2)n1` [Example 21, 1-(3-tert-butyl-1-(3-(2-morpholino-2-oxoethyl)phenyl)-1H-pyrazol-5-yl)-3-(naphthalen-1-yl)urea], on p38-alpha kinase, the Time-dependent entry is recorded as “Yes”.

In the case of `CC(C)(C)c1cc(NC(=O)Nc2cccc3ccccc23)n(-c2ccc(CN)cc2)n1` [Example 45], the Time-dependent result at p38-alpha kinase is “No”.

For the compound `CC(C)(C)c1cc(NC(=O)Nc2cccc(Cl)c2Cl)n(-c2ccc3c(c2)CNCC3)n1` [Example 64, 1-(3-tert-butyl-1-(1,2,3,4-tetrahydroisoquinolin-7-yl)-1H-pyrazol-5-yl)-3-(2,3-dichlorophenyl)urea], the EC50 at c-Abl kinase [1] turned out to be 43 nM. Moreover, in the assay with Abl kinase, the “ΔTm (° C.) relative to unphosphorylated Abl” value was 2.6 °C.

On to `CC(C)(C)c1cc(NC(=O)Nc2cccc(Cl)c2Cl)n(-c2ccc3c(c2)C[C@@H](C(=O)O)NC3)n1` [Example 65, (3S)-6-(3-tert-butyl-5-(3-(2,3-dichlorophenyl)ureido)-1H-pyrazol-1-yl)-1,2,3,4-tetrahydroisoquinoline-3-carboxylic acid], for which the EC50 at c-Abl kinase [1] amounted to 81 nM.

For the compound `CC(C)(C)c1cc(NC(=O)Nc2cccc(Cl)c2Cl)n(-c2ccc3c(c2)CCNC3)n1` [Example 66, 1-(3-tert-butyl-1-(1,2,3,4-tetrahydroisoquinolin-6-yl)-1H-pyrazol-5-yl)-3-(2,3-dichlorophenyl)urea], the EC50 on c-Abl kinase [1] is 30 nM. For the same compound, in the assay with c-Abl kinase [2], the “Effect on binding of fluoroprobe PD 166326 to Abl kinase” value is on record as “concentration-dependent acceleration of the binding of fluoroprobe PD 166326”. Besides, the ΔTm at 20 µM at V599E Braf kinase amounted to 15.8 °C. Moreover, the “ΔTm (° C.) relative to unphosphorylated Abl” value in the assay on Abl kinase turned out to be 3.2 °C.

For the compound `CC(C)(C)c1cc(NC(=O)Nc2cccc3ccccc23)n(-c2ccc(CO)cc2)n1` [Example 72], in assay [3] (doubly phosphorylated vs unphosphorylated p38-alpha, >1.0 = preference for unphosphorylated form), the “Ratio IC50s” value turned out to be 1.7. Also, the IC50 in [3] (~24 nM enzyme, 1.0 uM SKF-86002, read-out: FP IC50 U-p38-alpha) worked out at 40 nM; in [4], 67 nM. In addition, in assay [5], the “ΔTm (° C.) relative to unphosphorylated apo p38” value came out at 11.3 °C. Also, the “ΔTm (° C.) relative to doubly phosphorylated p38” value in [6] worked out at 8.1 °C. The “Competition with ATP” value at Phospho-p38-alpha kinase is “non-competitive with ATP”.

In the case of `CC(C)(C)c1cc(NC(=O)Nc2cccc(Cl)c2Cl)n(-c2ccc3c(c2)CN(S(C)(=O)=O)CC3)n1` [Example 80], the shift in melting temperature (ΔTm) at 20 µM on V599E Braf kinase was determined as 14.6 °C. The “ΔTm (° C.) relative to unphosphorylated Abl” value with Abl kinase stood at 2.3 °C.

As a reminder, the EC50 is the concentration at which the effect is half-maximal. The term ΔTm denotes the shift of the melting midpoint relative to a reference. Broadly, the IC50 is the midpoint of a concentration-inhibition curve.
